Series [1] in a line: pKa of TNX and cocrystal coformers (values from SciFinder). The following applies: between CCF and TNX (pKa of TNX 4.50).
The conditions of series [2]: cited from earlier work.
The conditions of series [3]: clinical dosage forms; cited from earlier work.
For series [4] the following is noted: low solubility and high permeability; cited from earlier work.
Series [5] in a line: Dissolution measurements (basket method, 37 °C, HPLC). The format is physicochemical. The following applies: pH 1.2 and 6.8, 37 °C. As to the method:
Dissolution measurements were investigated by the basket method by using an RC12AD dissolution instrument (Tianjin Tianda Tianfa Technology Co., Ltd., Tianjin, China). According to a previous study, it is necessary that all of the particle sizes of TNX, cocrystals, and salt are at the same level when the same operation is performed on these samples. To do so, the powder samples of TNX, two cocrystals, and one salt were milled and sieved through 100-mesh sieves to minimize the size influence on the results. The temperature and rotation speed were set to 37 °C and 160 r·min^−1. The dissolution mediums were water (pH 7.0), phosphate buffer (pH 6.8), acetate buffer (pH 4.5), and hydrochloric buffer (pH 1.2). Accurately weighed samples (containing 60 mg of TNX) were each added to 900 mL of dissolution mediums. The sampling points were at 5, 10, 15, 20, 30, 45, 60, 90, 120, 180, 240, 360, 480, 600, and 720 min. The concentrations of TNX were quantified on an Agilent 1200 Series HPLC system (Agilent Technologies, Santa Clara, USA) with a Sil-Green C18 HPLC column (4.6 mm × 250 mm, 5μm) and a UV detector at a wavelength of 257 nm. The mobile phase was methanol–0.04% formic acid aqueous solution (61:39). The flow rate and column temperature were set to 1 mL·min^−1 and 25 °C.

Like-named read-outs stand apart in the source and are kept apart here.

In the case of `O=C(O)c1ccc(O)cc1` [4-Hydroxybenzoic acid (HBA), 4-Hydroxybenzoic acid], the “ΔpKa Value” in series [1] is 0.07.
For the compound `O=C(O)c1c(O)cccc1O` [2,6-Dihydroxybenzoic acid (DHB), 2,6-Dihydroxybenzoic acid], the “pKa Value” in series [2] (pKa of the CCF, ref SciFinder) is on record as 1.30. For the same compound, the “ΔpKa Value” in series [1] stood at 3.20.
Turning to `O=C(O)c1cc([N+](=O)[O-])cc([N+](=O)[O-])c1` [3,5-Dinitrobenzoic acid (DNB), 3,5-Dinitrobenzoic acid], the “pKa Value” in series [2] (pKa of the CCF, ref SciFinder) is recorded as 2.77. Moreover, the “ΔpKa Value” in series [1] is 1.73.
Take `O=C(O)CCC(=O)C(=O)O` [α-Ketoglutaric acid (KLA), α-Ketoglutaric acid]: in series [1], the “ΔpKa Value” worked out at 2.12.
In the case of `O=C(O)CO` [Glycolic acid (GLA), Glycolic acid], in series [2] (pKa of the CCF, ref SciFinder), the “pKa Value” was 3.74. In addition, the “ΔpKa Value” in series [1] is reported as 0.76.
As for `Nc1ccc(C(=O)O)c(O)c1` [p-Aminosalicylic acid (PAS), p-Aminosalicylic acid], the “pKa Value” in series [2] is listed as 3.58. The “ΔpKa Value” in series [1] stood at 0.92.
In general, pKa refers to the pH at which an ionisable group is half protonated. For `CN1C(C(=O)Nc2ccccn2)=C(O)c2sccc2S1(=O)=O` [TNX, Tenoxicam], the half-life period in series [3] is given as 70~90 h. Besides, the pKa in series [2] (TNX, source not given) is listed as 4.50. Further, in series [4], the BCS class result is recorded as “class II”.
In the case of `CN1C(C(=O)Nc2ccccn2)=C(O)c2sccc2S1(=O)=O.Nc1ccc(C(=O)O)c(O)c1` [TNX-PAS], in series [5], the “solubility in dissolution measurements, comparison” value is listed as “slightly higher than that of TNX”.
Consider `Oc1cccc(O)c1` [Resorcinol (RSC), Resorcinol], for which the “pKa Value” in series [2] (pKa of the CCF, ref SciFinder) is recorded as 9.45. Also, in series [1], the “ΔpKa Value” amounted to 4.95.
As for `O=C(O)CCC(=O)O` [Succinic acid (SNA), Succinic acid], the “ΔpKa Value” in series [1] was 0.26.
As to `O=C(O)C(=O)O` [Oxalic acid (OLA), Oxalic acid], the “pKa Value” in series [2] (pKa of the CCF, ref SciFinder) is reported as 1.38.
As to `Oc1cccc(O)c1O` [Pyrogallol (PRG), Pyrogallol], in series [2] (pKa of the CCF, ref SciFinder), the “pKa Value” is on record as 9.28. Besides, the “ΔpKa Value” in series [1] turned out to be 4.78.
Turning to `O=C(O)/C=C\C(=O)O` [Maleic acid (MLA), Maleic acid], the “pKa Value” in series [2] (pKa of the CCF, ref SciFinder) is on record as 2.39. In series [1], the “ΔpKa Value” is 2.11.
In the case of `O=C1NS(=O)(=O)c2ccccc21` [Saccharin (SCR), Saccharin], the “pKa Value” in series [2] (pKa of the CCF, ref SciFinder) is listed as 1.60.
As for `Oc1ccccc1O` [Pyrocatechol (PRC), Pyrocatechol], in series [2] (pKa of the CCF, ref SciFinder), the “pKa Value” was 9.50. Moreover, the “ΔpKa Value” in series [1] came out at 5.00.
